Measured values published in PMC9170845, “Development of a multi faceted platform containing a tetrazine, fluorophore and chelator: synthesis, characterization, radiolabeling, and immuno-SPECT imaging” (EJNMMI Radiopharmacy and Chemistry, 2022).

Key:
[1] = Stability of cyano BODIPY core in acidic conditions (TFA in CDCl3, 1H NMR); type: physicochemical; settings: treated with TFA in CDCl3, monitored via 1H NMR, 11 days
Text: Initially our scaffold design comprised of the conventional 4,4′-difluoro-BODIPY fluorophore (Additional file1: Scheme S1). Despite numerous attempts and alternative strategies for completing the synthesis of the platform using the F-BODIPY fluorophore, the route was unsuccessful resulting in either BF2 core removal or complete decomposition (see Additional File), despite there being reports in the literature of similar transformations being successful in the presence of F-BODIPY dyes (Alnajjar et al. [2018]; Tsuji et al. [2018]; Sui et al. [2016]; Compton et al. [2019]; Ieda et al. [2014]). […] The increased stability is believed to be a result of enhanced aromaticity, decreased charge density on the boron, and the formation of a stable 4,4′-dicyano-BODIPY-TFA complex. To the best of our knowledge there has only been one example of an investigation incorporating 4,4′-dicyano-BODIPYs into a chemical synthesis with protecting groups (Uriel et al. [2020]). To reassure the stability of the cyano BODIPY core in acidic conditions, 7 was treated with TFA in CDCl3 and monitored via ^1H NMR (see Additional file1: Fig. S11) (Wang et al. [2018]). […] An alternative route was initially investigated, where the Cbz on 9 underwent hydrogenolysis followed by insertion of the chelator, deprotection, then insertion of the tetrazine. […]

[2] = Fluorescence characterization (excitation/emission spectra, absolute quantum yield); type: physicochemical; settings: in DMSO (stated for 13); for fluorescence quantum yield (Φfl): absolute PLQY, integrating sphere
Protocol: Following the synthesis of the final scaffold, the excitation and emission spectrum, and quantum yield were measured for the uncomplexed scaffold DO3A-BODIPY-Tz (13) in DMSO (Fig. 1), where an excitation λmax = 524 nm, emission λmax = 537 nm and a fluorescence quantum yield (Φfl) of 0.38 was observed. There are reports of tetrazine residues deactivating the fluorescence properties of fluorophores when they belong to the same molecular entity. However, once the tetrazine is conjugated, these properties are reinstated (Oliveira et al. [2017]; Wu and Devaraj [2018]). To ensure this, 13 was conjugated to TCO-NHS 16 in DMSO (Scheme 2). A distinct colour change from red to orange was observed which clearly indicated tetrazine consumption. The fluorescence properties of 17 (see Additional file1: Fig. S36) were then measured and compared to 13 and 4,4′-dicyano-BODIPY (7) (see Additional file1: Fig. S35; λmax excitation = 527 nm, λmax emission = 541 nm, Φfl = 0.87).
Luminescence experiments were conducted on an Edinburgh Instruments FS5 spectrometer using the SC-05 cassette. All spectra were corrected for instrument response. Excitation and emission monochromator bandwidths for 7 and 17 were set to 1 nm, and 1.5 nm for 13. The emission spectrum for 13 was collected with the aid of a Knight Optical 395 nm long-pass filter to reduce the effects of scattering. Solution-based absolute photoluminescent quantum yields (PLQY) were obtained for 7, 13, and 17 via the SC-30 Integrating Sphere cassette with excitation wavelengths of 380, 490, and 378 nm respectively.

Row | emission λmax [2] | excitation λmax [2] | fluorescence quantum yield (Φfl) [2] | SMILES | Stability in acidic conditions [1]
1 | 541 nm | 527 nm | 0.87 | CCC1=C(C)C2=C(c3ccc(C(=O)ON4C(=O)CCC4=O)cc3)c3c(C)c(CC)c(C)n3[B-](C#N)(C#N)[N+]2=C1C [compound 7, 4,4-dicyano-8-(4-(succinimidocarboxy)phenyl)-2,6-diethyl-1,3,5,7-tetramethyl-4-bora-3a,4a-diaza-s-indacene] | no indication of instability even after 11 days
2 | 537 nm | 524 nm | 0.38 | CCC1=C(C)C2=C(c3ccc(C(=O)NC(CCCCNC(=O)Cc4ccc(-c5nncnn5)cc4)C(=O)NC(CCCCNC(=O)CN4CCN(CC(=O)O)CCN(CC(=O)O)CCN(CC(=O)O)CC4)C(=O)O)cc3)c3c(C)c(CC)c(C)n3[B-](C#N)(C#N)[N+]2=C1C [compound 13, 2,2′,2″-(10-(2-(((S)-5-((S)-6-(2-(4-(1,2,4,5-tetrazin-3-yl)phenyl)acetamido)-2-(4-(4,4-dicyano-2,6-diethyl-1,3,5,7-tetramethyl-4-bora-3a,4a-diaza-s-indacen-8-yl)benzamido)hexanamido)-5-carboxypentyl)amino)-2-oxoethyl)-1,4,7,10-tetraazacyclododecane-1,4,7-triyl)triacetic acid] | 
3 | 537 nm | 525 nm | 0.79 | CCC1=C(C)C2=C(c3ccc(C(=O)NC(CCCCNC(=O)Cc4ccc(C5=NNC=C6CCC(OC(=O)ON7C(=O)CCC7=O)CCCC65)cc4)C(=O)NC(CCCCNC(=O)CN4CCN(CC(=O)O)CCN(CC(=O)O)CCN(CC(=O)O)CC4)C(=O)O)cc3)c3c(C)c(CC)c(C)n3[B-](C#N)(C#N)[N+]2=C1C (stereo not shown) [compound 17] | 
